Common to all, as to assay type: in vivo, Sprague-Dawley rats
For experiment [1], the system named is oxaliplatin-induced mechanical allodynia. Briefly: CIPN model (Example 5): mechanical allodynia, paw withdrawal threshold with von Frey filaments after oxaliplatin. Conditions: rat, oxaliplatin 10 mg/kg i.p.; 30 mg/kg p.o. each day of von Frey testing, tested 2 hr post dose. As to the method:
The aim of this study was to investigate the effect of a single intraplantar treatment with Nanoparticles from Example 1 (NP1B) at the dose of 11 g/L, Nanoparticles from Example 2 (NP2B) at 53 g/L, Nanoparticles from Example 3 (NP20B) at 57 g/L, and Nanoparticles from Example 4 (NP20A) at 59 g/L, each in 20 μL of injection volume, on the mechanical allodynia (as assessed using von Frey) that occurs following systemic administration of oxaliplatin in the rat.
Experimental subjects: Seventy-two (72) adult male Sprague-Dawley rats were used for this study. […]
Static mechanical (tactile) allodynia evaluation: Measurement of paw withdrawal threshold (PWT) was achieved using calibrated (force; g) von-Frey monofilaments (Touch-Test Sensory Evaluator; Scientific Marketing Associates) applied to the plantar surface of the hind paw. Withdrawal threshold was determined by increasing and decreasing stimulus intensity and estimated using Dixon's up-down method. […]
Baseline readings for latency to withdrawal (sec) were assessed on three consecutive days (Day −3, Day −2 and Day −1). […]
Mechanical allodynia was subsequently re-assessed 2-3 times per week following injection, out to D26 post-oxaliplatin. […]

Experiment [2] shares this test system. Briefly: CIPN model (Example 6): dose effect, paw withdrawal threshold with von Frey filaments, left (treated) vs right (vehicle) paw. Conditions: 30 mg/kg p.o. each day of von Frey testing; on any of the test days. The source says:
Animals were allowed to recover from transportation for at least one week before commencing experiments.
Data is presented as mean±SEM.

The test system of experiment [3] is STZ-induced mechanical allodynia. Briefly: STZ-induced diabetic neuropathic pain study (Example 7): paw withdrawal threshold with von Frey filaments. Conditions: 30 mg/kg p.o. 2 hr prior to each von Frey test.

As for `CC(C)C[C@H](CN)CC(=O)O` [Pregabalin], in experiment [1], the “PWT, allodynic response (positive control)” value is “rescued the allodynic response and recovered the PWT to the healthy baseline levels”. Besides, the “PWT levels (both paws) compared to ‘Vehicle/Vehicle’ group (not neuropathic)” value in experiment [2] is “not significantly different from the ‘Vehicle/Vehicle’ group”. In addition, the “PWT levels compared to ‘STZ/Vehicle’ group” value in experiment [3] is listed as “significantly different from the ‘STZ/Vehicle’ group on all days tested”.
